Laboratory results as given in US20190084939A1, “ANALOGS OF FEXARAMINE AND METHODS OF MAKING AND USING” (Salk Institute for Biological Studies, priority 2014, published 2019).

Tests used:
[1] = system: ob/ob mice; assay: fexaramine and deuterated analogs in ob/ob mice, 2 weeks; format: in vivo; conditions: 2 weeks at 50 mg/kg PO
Protocol: An in vivo study of fexaramine and selectively-deuterated fexaramine compounds (FIG. 29A) was performed. Briefly, ob/ob mice were treated daily with vehicle, Fex, or deuterated analogs (50 mg kg^−1) by oral (PO) gavage for 2 weeks. Subsequently, body weight, body temperature, fasting blood glucose and insulin levels, insulin secretion, and GLP1 section were measured, and glucose tolerance tests (GTTs) performed.

[2] = system: pancreatic islets gene expression; assay: RNA-Seq of pancreatic islets of treated ob/ob mice; format: in vivo; conditions: fexaramine 100 mg/kg 5 weeks, analogs 50 mg/kg 2 weeks
Protocol: Pancreatic islets were isolated from ob/ob mice after daily treatment by oral gavage with fexaramine (100 mg/kg for 5 weeks), FEX-D (50 mg/kg for 2 weeks) or SALK110 (NSSK00110, 50 mg/kg for 2 weeks). Changes in gene expression were determined by RNA-Seq.

[3] = molecular target: T1, Human FXR full length (Homo sapiens, UniProt Q96RI1); assay: FXR activity screen, luciferase reporter in transfected CV-1 cells; format: cell-based; conditions: fexaramine control in the retest; read-out: Fex EC50
T1 construct: Human FXR full length and RXR full length was obtained from Ronald Evans' laboratory; expressed in transfected cells; host or cells: CV-1 cells
T1 sequence (Q96RI1 1-476 isoform Q96RI1-1): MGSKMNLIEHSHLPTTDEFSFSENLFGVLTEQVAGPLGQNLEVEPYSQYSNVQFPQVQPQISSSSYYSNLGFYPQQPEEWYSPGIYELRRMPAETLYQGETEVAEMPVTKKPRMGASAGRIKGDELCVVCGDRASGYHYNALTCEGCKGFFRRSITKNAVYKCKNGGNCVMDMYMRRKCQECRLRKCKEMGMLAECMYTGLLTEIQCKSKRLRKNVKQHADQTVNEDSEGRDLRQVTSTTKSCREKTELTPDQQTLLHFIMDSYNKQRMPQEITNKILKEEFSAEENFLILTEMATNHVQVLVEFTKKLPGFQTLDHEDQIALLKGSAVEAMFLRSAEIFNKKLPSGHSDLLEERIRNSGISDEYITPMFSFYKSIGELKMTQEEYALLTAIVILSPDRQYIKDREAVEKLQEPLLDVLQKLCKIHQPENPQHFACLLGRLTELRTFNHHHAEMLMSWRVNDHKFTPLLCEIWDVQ
T1 sequence (P19793 1-462 partner): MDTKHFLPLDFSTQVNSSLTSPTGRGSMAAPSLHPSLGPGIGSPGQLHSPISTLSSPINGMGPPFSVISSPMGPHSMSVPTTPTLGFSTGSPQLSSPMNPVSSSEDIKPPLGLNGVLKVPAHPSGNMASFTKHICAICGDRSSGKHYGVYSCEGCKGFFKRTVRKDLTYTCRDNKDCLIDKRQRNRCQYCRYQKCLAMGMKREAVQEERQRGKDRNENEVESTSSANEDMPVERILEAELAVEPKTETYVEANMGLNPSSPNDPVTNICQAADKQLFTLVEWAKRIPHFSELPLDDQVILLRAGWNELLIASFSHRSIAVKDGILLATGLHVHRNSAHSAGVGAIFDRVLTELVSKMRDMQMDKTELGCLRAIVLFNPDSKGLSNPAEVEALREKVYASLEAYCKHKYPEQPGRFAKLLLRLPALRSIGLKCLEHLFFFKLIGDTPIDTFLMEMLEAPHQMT
Procedure, shortened: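 CV-1 cells in charcoal-stripped serum, transfected with full-length human FXR, RXR, FXRE-luciferase reporter and β-Gal; 48 h expression, then 24 h compound (0.001–100 μM, quadruplicate, 1:1000 DMSO dilution). Luciferase normalized to β-galactosidase; fold induction vs untreated, efficacy relative to fexaramine, EC50 by non-linear regression.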

COC(=O)/C=C/c1cccc(N(Cc2ccc(-c3ccc(N(C)C)cc3)cc2)C(=O)C2CCCCC2)c1 [Fexaramine, fexaramine]
body weight [1]: do not affect body weight | core body temperature [1]: did increase core body temperature | fasting blood glucose levels [1]: does not significantly affect | gene induction in islets (intracellular signaling, insulin secretion, exocytosis) [2]: induce a common set of genes | EC50 [3]: 0.063 µM
